Measured values taken from ChEMBL document CHEMBL1909046, “DrugMatrix in vitro pharmacology data”.
pIC50: −log10 of the molar value.

Tests used:
[1] = DRUGMATRIX: Sodium/nucleoside co-transporter radioligand binding (ligand: nitrobenzylthioinosine); format: cell membranes, Cavia porcellus, Dunkin-Hartley, Cerebral cortex, Membrane; conditions: Not Active = under 50% inhibition at 10 µM
[2] = target: T1, Alpha-2A adrenergic receptor (Homo sapiens, UniProt P08913); format: cell membranes, Sf9, Membrane; conditions: sf9; also: in other assays of this panel Not Active means under 50% inhibition at 10 µM
T1 sequence (P08913 whole entry): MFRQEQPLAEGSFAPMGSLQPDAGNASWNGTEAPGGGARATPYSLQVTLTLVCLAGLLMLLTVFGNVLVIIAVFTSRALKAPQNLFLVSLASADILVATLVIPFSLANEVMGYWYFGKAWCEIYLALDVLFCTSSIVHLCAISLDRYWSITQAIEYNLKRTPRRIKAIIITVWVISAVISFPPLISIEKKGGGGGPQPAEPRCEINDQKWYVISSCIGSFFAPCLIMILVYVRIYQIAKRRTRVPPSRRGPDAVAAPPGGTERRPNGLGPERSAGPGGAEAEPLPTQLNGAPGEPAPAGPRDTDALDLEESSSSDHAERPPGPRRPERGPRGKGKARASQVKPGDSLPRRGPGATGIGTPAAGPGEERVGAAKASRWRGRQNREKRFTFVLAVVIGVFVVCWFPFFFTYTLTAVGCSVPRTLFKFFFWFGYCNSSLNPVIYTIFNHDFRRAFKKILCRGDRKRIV

[3] = target: Vascular endothelial growth factor receptor 1 (Homo sapiens, UniProt P17948); format: cell-based; conditions: huvec; also: in other assays of this panel Not Active means under 50% inhibition at 10 µM
[4] = target: T2, Cholecystokinin receptor type A (Homo sapiens, UniProt P32238); format: cell membranes, Membrane; conditions: 1321-n1; also: in other assays of this panel Not Active means under 50% inhibition at 10 µM
T2 sequence (P32238 whole entry): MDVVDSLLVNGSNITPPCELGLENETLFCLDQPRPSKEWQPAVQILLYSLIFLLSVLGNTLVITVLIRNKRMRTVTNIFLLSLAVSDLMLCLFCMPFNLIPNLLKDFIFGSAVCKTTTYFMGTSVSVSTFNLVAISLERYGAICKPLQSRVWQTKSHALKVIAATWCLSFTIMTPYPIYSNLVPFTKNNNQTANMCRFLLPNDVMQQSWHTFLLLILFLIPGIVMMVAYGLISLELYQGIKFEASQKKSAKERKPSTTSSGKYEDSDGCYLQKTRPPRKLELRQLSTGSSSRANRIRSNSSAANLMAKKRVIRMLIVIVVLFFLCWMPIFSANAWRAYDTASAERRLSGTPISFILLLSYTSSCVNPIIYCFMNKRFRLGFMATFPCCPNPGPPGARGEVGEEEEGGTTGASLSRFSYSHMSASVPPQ

[5] = target: Prostaglandin G/H synthase 1 (Homo sapiens, UniProt P23219); assay: biochemical; format: tissue-based, Platelet; conditions: platelet;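 also: inhibition of COX-1 enzyme activity, with arachidonic acid supplied as substrate; in other assays of this panel Not Active means under 50% inhibition at 10 µM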
Nitric oxide synthase 1 = Nitric oxide synthase 1 (Rattus norvegicus, UniProt P29476); format: tissue-based, Cerebellum; also: in other assays of this panel Not Active means under 50% inhibition at 10 µM
Caspase-1 = target: T3, Caspase-1 (Homo sapiens, UniProt P29466); parameters: species or system Escherichia coli
T3 sequence (P29466 whole entry): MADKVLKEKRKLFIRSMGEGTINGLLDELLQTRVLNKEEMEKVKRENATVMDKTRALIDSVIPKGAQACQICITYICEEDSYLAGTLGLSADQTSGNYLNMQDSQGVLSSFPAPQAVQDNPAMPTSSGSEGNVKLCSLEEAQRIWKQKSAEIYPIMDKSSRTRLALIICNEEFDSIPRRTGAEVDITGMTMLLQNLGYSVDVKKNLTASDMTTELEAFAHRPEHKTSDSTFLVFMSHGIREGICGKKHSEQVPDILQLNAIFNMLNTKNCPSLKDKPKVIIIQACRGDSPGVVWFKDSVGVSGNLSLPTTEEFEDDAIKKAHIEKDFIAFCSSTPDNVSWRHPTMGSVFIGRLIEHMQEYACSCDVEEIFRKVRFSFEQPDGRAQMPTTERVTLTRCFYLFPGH

Sequence of Prostaglandin G/H synthase 1 (P23219 whole entry): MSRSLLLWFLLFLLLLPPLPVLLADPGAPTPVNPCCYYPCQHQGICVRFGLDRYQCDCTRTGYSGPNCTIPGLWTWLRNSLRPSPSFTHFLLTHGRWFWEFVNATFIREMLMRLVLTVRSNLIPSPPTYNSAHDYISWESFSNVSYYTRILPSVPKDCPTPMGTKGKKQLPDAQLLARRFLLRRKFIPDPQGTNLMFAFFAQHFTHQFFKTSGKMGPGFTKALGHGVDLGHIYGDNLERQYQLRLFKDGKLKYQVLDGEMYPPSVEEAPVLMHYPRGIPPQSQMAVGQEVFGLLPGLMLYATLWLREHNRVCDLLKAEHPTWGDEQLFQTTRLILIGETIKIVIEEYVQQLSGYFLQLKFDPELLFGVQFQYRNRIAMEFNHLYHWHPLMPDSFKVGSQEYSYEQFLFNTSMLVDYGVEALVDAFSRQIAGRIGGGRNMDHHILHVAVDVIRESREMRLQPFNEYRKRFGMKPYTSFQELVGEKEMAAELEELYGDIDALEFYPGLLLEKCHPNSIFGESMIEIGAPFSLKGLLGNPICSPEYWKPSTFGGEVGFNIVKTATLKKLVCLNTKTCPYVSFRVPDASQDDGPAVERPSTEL
Sequence of Nitric oxide synthase 1 (P29476 whole entry): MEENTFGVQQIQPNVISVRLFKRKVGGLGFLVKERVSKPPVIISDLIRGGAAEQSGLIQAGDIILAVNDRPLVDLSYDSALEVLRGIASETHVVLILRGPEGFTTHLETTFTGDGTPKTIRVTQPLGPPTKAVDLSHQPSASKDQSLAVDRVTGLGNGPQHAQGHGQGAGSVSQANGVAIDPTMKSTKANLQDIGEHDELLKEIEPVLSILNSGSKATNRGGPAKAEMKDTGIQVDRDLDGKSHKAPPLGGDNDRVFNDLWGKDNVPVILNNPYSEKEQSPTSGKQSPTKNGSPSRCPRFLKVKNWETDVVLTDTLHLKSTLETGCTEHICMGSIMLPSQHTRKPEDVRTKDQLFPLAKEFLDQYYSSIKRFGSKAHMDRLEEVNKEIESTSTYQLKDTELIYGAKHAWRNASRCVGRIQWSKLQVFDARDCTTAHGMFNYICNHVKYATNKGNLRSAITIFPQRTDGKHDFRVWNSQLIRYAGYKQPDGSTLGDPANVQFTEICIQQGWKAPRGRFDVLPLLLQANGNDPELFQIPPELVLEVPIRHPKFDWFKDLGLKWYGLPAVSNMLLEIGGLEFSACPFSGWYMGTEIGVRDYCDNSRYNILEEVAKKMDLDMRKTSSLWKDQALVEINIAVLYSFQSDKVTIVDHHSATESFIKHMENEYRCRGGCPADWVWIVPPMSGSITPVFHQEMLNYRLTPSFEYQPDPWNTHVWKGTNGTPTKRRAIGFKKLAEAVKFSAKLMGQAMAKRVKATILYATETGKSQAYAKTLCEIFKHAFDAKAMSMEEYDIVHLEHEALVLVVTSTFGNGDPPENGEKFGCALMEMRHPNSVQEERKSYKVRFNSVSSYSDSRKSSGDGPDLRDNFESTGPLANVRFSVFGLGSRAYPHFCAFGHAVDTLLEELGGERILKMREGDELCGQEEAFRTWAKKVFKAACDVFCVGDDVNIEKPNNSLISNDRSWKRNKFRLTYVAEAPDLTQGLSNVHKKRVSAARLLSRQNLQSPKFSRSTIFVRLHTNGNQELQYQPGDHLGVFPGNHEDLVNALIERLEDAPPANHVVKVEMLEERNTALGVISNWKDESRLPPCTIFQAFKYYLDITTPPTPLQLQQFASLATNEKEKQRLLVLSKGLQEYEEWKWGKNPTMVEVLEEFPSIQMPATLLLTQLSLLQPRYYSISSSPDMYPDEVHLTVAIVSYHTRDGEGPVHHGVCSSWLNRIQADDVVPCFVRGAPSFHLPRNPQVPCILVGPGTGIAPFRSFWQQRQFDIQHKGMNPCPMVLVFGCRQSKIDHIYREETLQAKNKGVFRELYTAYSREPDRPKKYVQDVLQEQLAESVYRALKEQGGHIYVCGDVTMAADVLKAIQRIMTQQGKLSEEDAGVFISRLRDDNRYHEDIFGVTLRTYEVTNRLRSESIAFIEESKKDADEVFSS
Sequence of Vascular endothelial growth factor receptor 1 (P17948 whole entry): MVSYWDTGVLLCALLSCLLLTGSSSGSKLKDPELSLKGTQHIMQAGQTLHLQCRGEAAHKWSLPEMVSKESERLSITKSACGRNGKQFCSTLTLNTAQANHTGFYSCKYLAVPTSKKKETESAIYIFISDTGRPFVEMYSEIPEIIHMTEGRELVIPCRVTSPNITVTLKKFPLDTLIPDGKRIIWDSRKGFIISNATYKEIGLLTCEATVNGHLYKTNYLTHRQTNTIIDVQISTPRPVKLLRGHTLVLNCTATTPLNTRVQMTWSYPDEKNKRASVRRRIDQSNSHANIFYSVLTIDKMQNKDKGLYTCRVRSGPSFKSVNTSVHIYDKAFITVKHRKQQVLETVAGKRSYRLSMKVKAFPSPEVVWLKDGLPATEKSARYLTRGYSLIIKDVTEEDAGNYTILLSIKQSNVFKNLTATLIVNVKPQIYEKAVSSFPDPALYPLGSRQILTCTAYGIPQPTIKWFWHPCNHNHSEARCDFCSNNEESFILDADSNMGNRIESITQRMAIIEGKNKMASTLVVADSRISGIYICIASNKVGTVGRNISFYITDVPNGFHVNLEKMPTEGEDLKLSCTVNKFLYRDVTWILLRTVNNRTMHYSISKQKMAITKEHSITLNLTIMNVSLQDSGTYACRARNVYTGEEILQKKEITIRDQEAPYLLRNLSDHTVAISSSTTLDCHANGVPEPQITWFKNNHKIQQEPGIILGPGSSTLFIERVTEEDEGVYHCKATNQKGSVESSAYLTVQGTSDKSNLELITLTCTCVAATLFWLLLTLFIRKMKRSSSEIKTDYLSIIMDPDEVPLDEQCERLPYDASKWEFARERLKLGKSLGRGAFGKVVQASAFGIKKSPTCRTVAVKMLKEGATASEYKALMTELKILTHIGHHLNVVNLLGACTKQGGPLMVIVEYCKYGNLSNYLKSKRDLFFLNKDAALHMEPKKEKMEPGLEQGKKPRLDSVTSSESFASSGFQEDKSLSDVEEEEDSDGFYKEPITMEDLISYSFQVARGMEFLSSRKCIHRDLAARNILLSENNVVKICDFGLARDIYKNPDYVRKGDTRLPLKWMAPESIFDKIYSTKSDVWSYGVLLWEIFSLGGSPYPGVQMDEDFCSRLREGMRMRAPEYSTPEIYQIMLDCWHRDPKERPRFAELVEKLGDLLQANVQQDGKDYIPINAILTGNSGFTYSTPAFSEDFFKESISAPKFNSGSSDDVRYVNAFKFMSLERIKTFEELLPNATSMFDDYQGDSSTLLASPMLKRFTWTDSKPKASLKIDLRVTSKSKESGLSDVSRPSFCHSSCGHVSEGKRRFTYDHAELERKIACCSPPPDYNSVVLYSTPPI

| SMILES | IC50 [1] | Ki [1] | IC50 [2] | IC50 [3] | IC50 [4] | IC50 [5] | IC50 (Nitric oxide synthase 1) | IC50 (Caspase-1) | pIC50 (Caspase-1; read-out: IC50) |
| --- | --- | --- | --- | --- | --- | --- | --- | --- | --- |
| ClC(Cl)Cl [CHLOROFORM] | Not Active | Not Active | Not Active | Not Active | Not Active | Not Active | Not Active | Not Active |  |
| C=C1CC[C@H](O)C/C1=C/C=C1\CCC[C@]2(C)[C@@H]([C@H](C)CCCC(C)C)CC[C@@H]12 [CHOLECALCIFEROL] | Not Active | Not Active | Not Active | Not Active | Not Active | Not Active | Not Active | Not Active |  |
| C[N+](C)(C)CCO.[Cl-] [CHOLINE CHLORIDE] | Not Active | Not Active | Not Active | Not Active | Not Active | Not Active | Not Active | Not Active |  |
| CCOC(=O)C(C)(C)Oc1ccc(Cl)cc1 [CLOFIBRATE] | Not Active | Not Active | Not Active | Not Active | Not Active | Not Active | Not Active | Not Active |  |
| CC(=O)OCC(=O)[C@@]1(O)CC[C@H]2[C@@H]3CCC4=CC(=O)CC[C@]4(C)[C@H]3C(=O)C[C@@]21C [CORTISONE ACETATE] | Not Active | Not Active | Not Active | Not Active | Not Active | Not Active | Not Active | Not Active |  |
| O=c1ccc2ccccc2o1 [COUMARIN] | Not Active | Not Active | Not Active | Not Active | Not Active | Not Active | Not Active | Not Active |  |
| C[C@@H]1C[C@@H]([C@H](O)CC2CC(=O)NC(=O)C2)C(=O)[C@@H](C)C1 [CYCLOHEXIMIDE] | Not Active | Not Active | Not Active | Not Active | Not Active | Not Active | Not Active | Not Active |  |
| C/C=C/C[C@@H](C)[C@@H](O)[C@H]1C(=O)N[C@@H](CC)C(=O)N(C)CC(=O)N(C)[C@@H](CC(C)C)C(=O)N[C@@H](C(C)C)C(=O)N(C)[C@@H](CC(C)C)C(=O)N[C@@H](C)C(=O)N[C@H](C)C(=O)N(C)[C@@H](CC(C)C)C(=O)N(C)[C@@H](CC(C)C)C(=O)N(C)[C@@H](C(C)C)C(=O)N1C [CYCLOSPORINE] | Not Active | Not Active | Not Active | Not Active | Not Active | Not Active | Not Active | Not Active |  |
| CN(C)/N=N/c1[nH]cnc1C(N)=O [DACARBAZINE] | Not Active | Not Active | Not Active | Not Active | Not Active | Not Active | Not Active | Not Active |  |
| COc1ccc2c(c1)[C@]13CCCC[C@@H]1[C@H](C2)N(C)CC3 [DEXTROMETHORPHAN] | Not Active | Not Active | Not Active | Not Active | Not Active | Not Active | Not Active | Not Active |  |
| CC(=O)Nc1c(I)c(NC(C)=O)c(I)c(C(=O)O)c1I [DIATRIZOIC ACID] | Not Active | Not Active | Not Active | Not Active | Not Active | Not Active | Not Active | Not Active |  |
| COP(=O)(OC)OC=C(Cl)Cl [DICHLORVOS] | Not Active | Not Active | Not Active | Not Active | Not Active | Not Active | Not Active | Not Active |  |
| C[C@H]1O[C@@H](O[C@H]2[C@@H](O)C[C@H](O[C@H]3[C@@H](O)C[C@H](O[C@H]4CC[C@@]5(C)[C@H](CC[C@@H]6[C@@H]5CC[C@]5(C)[C@@H](C7=CC(=O)OC7)CC[C@]65O)C4)O[C@@H]3C)O[C@@H]2C)C[C@H](O)[C@@H]1O [DIGITOXIN] | Not Active | Not Active | Not Active | Not Active | Not Active | Not Active | Not Active | Not Active |  |
| CCN1CC(CCN2CCOCC2)C(c2ccccc2)(c2ccccc2)C1=O (centres undefined) [DOXAPRAM] | Not Active | Not Active | Not Active | Not Active | Not Active | Not Active | Not Active | Not Active |  |
| Cn1c(=O)c2c(ncn2CC2OCCO2)n(C)c1=O [DOXOFYLLINE] | Not Active | Not Active | Not Active | Not Active | Not Active | Not Active | Not Active | Not Active |  |
| COc1cccc2c1C(=O)c1c(O)c3c(c(O)c1C2=O)C[C@@](O)(C(=O)CO)C[C@@H]3O[C@H]1C[C@H](N)[C@H](O)[C@H](C)O1 [DOXORUBICIN] | Not Active | Not Active | Not Active | Not Active | Not Active | Not Active | Not Active |  | 4.91 |
| COc1cccc2c1C(=O)c1c(O)c3c(c(O)c1C2=O)C[C@@](O)(C(=O)CO)C[C@@H]3O[C@H]1C[C@H](N)[C@@H](O)[C@H](C)O1 [EPIRUBICIN] | Not Active | Not Active | Not Active | Not Active | Not Active | Not Active | Not Active | Not Active |  |
| C[C@]12CC[C@@H]3c4ccc(OC(=O)c5ccccc5)cc4CC[C@H]3[C@@H]1CC[C@@H]2O [ESTRADIOL BENZOATE] | Not Active | Not Active | Not Active | Not Active | Not Active | Not Active | Not Active | Not Active |  |
| C[C@]12CC[C@@H]3c4ccc(O)cc4CC[C@H]3[C@@H]1CC[C@@H]2O [ESTRADIOL] | Not Active | Not Active | Not Active | Not Active | Not Active | Not Active | Not Active | Not Active |  |
| CC[C@@H](CO)NCCN[C@@H](CC)CO [ETHAMBUTOL] | Not Active | Not Active | Not Active | Not Active | Not Active | Not Active | Not Active | Not Active |  |
| CC1(C)O[C@@H]2C[C@H]3[C@@H]4C[C@H](F)C5=CC(=O)C=C[C@]5(C)[C@H]4[C@@H](O)C[C@]3(C)[C@]2(C(=O)CO)O1 [FLUNISOLIDE] | Not Active | Not Active | Not Active | Not Active | Not Active | Not Active | Not Active | Not Active |  |
| CC1(C)O[C@@H]2C[C@H]3[C@@H]4C[C@H](F)C5=CC(=O)C=C[C@]5(C)[C@@]4(F)[C@@H](O)C[C@]3(C)[C@]2(C(=O)CO)O1 [FLUOCINOLONE ACETONIDE] | Not Active | Not Active | Not Active | Not Active | Not Active | Not Active | Not Active | Not Active |  |
| CC1(C)O[C@@H]2C[C@H]3[C@@H]4C[C@H](F)C5=CC(=O)CC[C@]5(C)[C@H]4[C@@H](O)C[C@]3(C)[C@]2(C(=O)CO)O1 [FLURANDRENOLIDE] | Not Active | Not Active | Not Active | Not Active | Not Active | Not Active | Not Active | Not Active |  |
